In the supplement of paper PMC10307832:

Columns and labels:
Experiment in all cases: relative viability (nuclei count vs DMSO), 5 days (fraction); higher = more cells survive
[1] = compound: COc1cc(-c2nn([C@H]3CC[C@H](N4CCN(C(C)=O)CC4)CC3)c3ncnc(N)c23)ccc1NC(=O)c1cc2ccccc2n1C + O=C(CCCCCCC(=O)Nc1ccccc1)NO [Vorinostat] (partner 1 µM)
Method in brief: (§1)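 Medians of duplicate plates are given as relative viability. That measure is the nuclei count in treated wells divided by the count in vehicle wells. Counts were taken on 4× images of lung cancer cell lines in 1536-well plates, 5 days after pin-tool dosing the day after seeding with one drug alone or a fixed anchor-drug dose plus five library-drug doses (not always all listed) in √10 steps.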

[2] = compound: CO[C@@H]1[C@H](N(C)C(=O)c2ccccc2)C[C@H]2O[C@]1(C)n1c3ccccc3c3c4c(c5c6ccccc6n2c5c31)C(=O)NC4 [Midostaurin] + CC(=O)c1c(C)c2cnc(Nc3ccc(N4CCNCC4)cn3)nc2n(C2CCCC2)c1=O [Palbociclib] (partner 0.5 µM)
Method in brief: as §1

[3] = compound: COc1cc(-c2nn([C@H]3CC[C@H](N4CCN(C(C)=O)CC4)CC3)c3ncnc(N)c23)ccc1NC(=O)c1cc2ccccc2n1C + Cc1nc(NC(=O)N2CCC[C@H]2C(N)=O)sc1-c1ccnc(C(C)(C)C(F)(F)F)c1 [Alpelisib] (partner 2 µM)
Method in brief: as §1

[4] = compound: COc1cc(-c2nn([C@H]3CC[C@H](N4CCN(C(C)=O)CC4)CC3)c3ncnc(N)c23)ccc1NC(=O)c1cc2ccccc2n1C + CS(=O)(=O)CCNCc1ccc(-c2ccc3ncnc(Nc4ccc(OCc5cccc(F)c5)c(Cl)c4)c3c2)o1 [Lapatinib] (partner 2 µM)
Method in brief: as §1

[5] = compound: COc1cc(-c2nn([C@H]3CC[C@H](N4CCN(C(C)=O)CC4)CC3)c3ncnc(N)c23)ccc1NC(=O)c1cc2ccccc2n1C + Nc1ncn([C@H]2C[C@H](O)[C@@H](CO)O2)c(=O)n1 [Decitabine] (partner 2 µM)
Method in brief: as §1

| Cell Line | relative viability ([1]; first compound 0.0128 µM) | relative viability ([1]; first compound 0.04048 µM) | relative viability ([1]; first compound 0.128 µM) | relative viability ([1]; first compound 1.28 µM) | relative viability ([2]; first compound 0.01 µM) | relative viability ([2]; first compound 0.03162 µM) | relative viability ([2]; first compound 0.1 µM) | relative viability ([2]; first compound 0.3162 µM) | relative viability ([3]; first compound 0.0128 µM) | relative viability ([3]; first compound 0.04048 µM) | relative viability ([3]; first compound 0.128 µM) | relative viability ([3]; first compound 1.28 µM) | relative viability ([4]; first compound 0.0128 µM) | relative viability ([4]; first compound 0.04048 µM) | relative viability ([4]; first compound 0.128 µM) | relative viability ([4]; first compound 1.28 µM) | relative viability ([5]; first compound 0.0128 µM) | relative viability ([5]; first compound 0.04048 µM) | relative viability ([5]; first compound 0.128 µM) | relative viability ([5]; first compound 1.28 µM) |
| --- | --- | --- | --- | --- | --- | --- | --- | --- | --- | --- | --- | --- | --- | --- | --- | --- | --- | --- | --- | --- |
| HCC-366 | 0.432 | 0.361 | 0.346 | 0.451 | 0.364 | 0.409 | 0.389 | 0.384 | 0.444 | 0.374 | 0.418 | 0.259 | 1.09 | 0.998 | 1.07 | 0.66 | 0.379 | 0.344 | 0.351 | 0.306 |
| BEN | 0.591 | 0.561 | 0.59 | 0.483 | 0.515 | 0.473 | 0.52 | 0.467 | 0.972 | 1.15 | 0.865 | 0.642 | 0.588 | 0.646 | 0.878 | 0.401 | 0.571 | 0.733 | 0.708 | 0.582 |
| NCI-H23 | 0.734 | 0.51 | 0.541 | 0.519 | 0.49 | 0.506 | 0.377 | 0.309 | 0.63 | 0.632 | 0.659 | 0.476 | 1.28 | 1.03 | 1.07 | 1.09 | 0.283 | 0.291 | 0.291 | 0.298 |
| NCI-H1395 | 0.823 | 0.594 | 0.698 | 0.516 | 0.626 | 0.753 | 0.639 | 0.703 | 0.947 | 1.47 | 0.995 | 0.953 | 0.939 | 1.09 | 0.881 | 0.782 | 0.753 | 0.748 | 0.77 | 0.533 |
| 201T | 1.01 | 1.1 | 0.909 | 0.654 | 0.366 | 0.368 | 0.35 | 0.406 | 0.996 | 1.09 | 0.908 | 0.591 | 1.11 | 1.04 | 1 | 0.915 | 0.929 | 0.919 | 0.809 | 0.615 |
| NCI-H2170 | 1.09 | 0.969 | 0.8 | 0.704 | 0.394 | 0.397 | 0.406 | 0.454 | 0.891 | 0.789 | 0.82 | 0.686 | 0.253 | 0.283 | 0.243 | 0.249 | 0.533 | 0.53 | 0.479 | 0.471 |
| NCI-H460 | 0.735 | 0.983 | 0.642 | 0.709 | 0.13 | 0.195 | 0.183 | 0.0929 | 0.386 | 0.59 | 0.57 | 0.378 | 1.05 | 0.994 | 0.964 | 0.741 | 0.495 | 0.452 | 0.451 | 0.433 |
| NCI-H661 | 0.761 | 0.971 | 0.819 | 1.01 | 0.399 | 0.41 | 0.438 | 0.469 | 0.418 | 0.526 | 0.729 | 0.376 | 0.545 | 0.532 | 0.469 | 0.319 | 0.513 | 0.532 | 0.511 | 0.509 |
| HCC-15 | 0.954 | 0.752 | 0.85 | 0.698 | 0.806 | 0.788 | 0.771 | 0.73 | 0.963 | 0.886 | 0.864 | 0.662 | 1.08 | 0.726 | 0.87 | 0.896 | 0.822 | 0.589 | 0.638 | 0.567 |
| ABC-1 | 1.21 | 0.965 | 1.19 | 1.14 | 0.709 | 1.01 | 0.679 | 0.559 | 0.972 | 1.08 | 0.78 | 1 | 1.26 | 1.17 | 1.04 | 0.891 | 1.19 | 1.03 | 0.835 | 0.998 |
| EPLC-272H | 0.357 | 0.345 | 0.62 | 0.457 | 0.291 | 0.355 | 0.302 | 0.3 | 0.976 | 1.09 | 0.923 | 0.765 | 0.815 | 0.891 | 0.997 | 0.86 | 0.444 | 0.315 | 0.342 | 0.312 |
